Source: patent US9650339B2, “Inhibitors of histone demethylases” (Gilead Sciences, Inc., priority 2013, dated 2017)
pIC50: −log10 of the molar value.

Experiments:
Type in all cases: cell-based
[1] = target: T1, KDM6B (Homo sapiens, UniProt O15054); test: Histone lysine demethylase immunofluorescence assay, U2OS cells transfected with KDM6B; conditions: U2OS cells transfected with pCMVHA KDM6B; mark detected H3K27me2; 20 hours
T1 construct: (a.a. 1026-1682); host or cells: U2OS
Experimental: (§1) U2OS cells were seeded 24 hours before transfection. Transfection was performed with Fugene HD transfection reagent as recommended by the manufacturer. 6 hours after transfection, the cells were harvested and seeded into multi well plates into media containing compound. The media used was DMEM containing 10% FBS and pen/strep. 20 hours after incubation of cells with compounds, the cells were washed in PBS, harvested by fixation with formaldehyde 4% aqueous solution, and washed in PBS. Subsequently, the cells were permeabilized in PBS with 0.2% Triton X-100 for. Blocking was performed in PBS with 0.2% Triton X-100 and 5% FBS. The cells were incubated with primary antibodies in blocking solution over night at 4° C. The primary antibodies used in the assays were HA.11 (Covance, MMS-101P) and the antibody detecting the mark specified in the table below. After incubation with primary antibodies, the cells were washed with PBS, incubated with secondary antibodies (Alexa fluor 594 goat anti rabbit IgG, Invitrogen, A11012; Alexa flour 488 donkey anti mouse IgG, Invitrogen, A21202) and Hoechst, (Sigma, 33342) in blocking solution, and washed again with PBS. Finally, PBS was added and high throughput imaging and analysis were performed by an IN Cell Analyzer 1000 (GE Healthcare). The robot software analyzed individual cells and divided these into HA+ (transfected cells) and HA− (non-transfected cells). The IC50 values were based on an average measure of the staining of the mark specified in the table below in the transfected cells.

[2] = tested on: H3K4me3 mark; test: Histone lysine demethylase immunofluorescence assay, non-transfected U2OS cells; conditions: Homo sapiens, staining of the H3K4me3 mark, 20 hours incubation with compound
How it was run: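 Non-transfected U2OS cells incubated with compounds 20 h in DMEM/5% FBS. Fixed cells immunostained for H3K4me3 with Hoechst counterstain and imaged by high-throughput microscopy. IC50 based on average cellular H3K4me3 staining.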

[3] = target: T2, KDM4A (Homo sapiens, UniProt O75164); test: Histone lysine demethylase immunofluorescence assay, U2OS cells transfected with KDM4A; conditions: U2OS cells transfected with pCMVHA KDM4A; mark detected H3K9me3; 20 hours
T2 construct: Full length; host or cells: U2OS
T2 sequence (O75164 1-1064): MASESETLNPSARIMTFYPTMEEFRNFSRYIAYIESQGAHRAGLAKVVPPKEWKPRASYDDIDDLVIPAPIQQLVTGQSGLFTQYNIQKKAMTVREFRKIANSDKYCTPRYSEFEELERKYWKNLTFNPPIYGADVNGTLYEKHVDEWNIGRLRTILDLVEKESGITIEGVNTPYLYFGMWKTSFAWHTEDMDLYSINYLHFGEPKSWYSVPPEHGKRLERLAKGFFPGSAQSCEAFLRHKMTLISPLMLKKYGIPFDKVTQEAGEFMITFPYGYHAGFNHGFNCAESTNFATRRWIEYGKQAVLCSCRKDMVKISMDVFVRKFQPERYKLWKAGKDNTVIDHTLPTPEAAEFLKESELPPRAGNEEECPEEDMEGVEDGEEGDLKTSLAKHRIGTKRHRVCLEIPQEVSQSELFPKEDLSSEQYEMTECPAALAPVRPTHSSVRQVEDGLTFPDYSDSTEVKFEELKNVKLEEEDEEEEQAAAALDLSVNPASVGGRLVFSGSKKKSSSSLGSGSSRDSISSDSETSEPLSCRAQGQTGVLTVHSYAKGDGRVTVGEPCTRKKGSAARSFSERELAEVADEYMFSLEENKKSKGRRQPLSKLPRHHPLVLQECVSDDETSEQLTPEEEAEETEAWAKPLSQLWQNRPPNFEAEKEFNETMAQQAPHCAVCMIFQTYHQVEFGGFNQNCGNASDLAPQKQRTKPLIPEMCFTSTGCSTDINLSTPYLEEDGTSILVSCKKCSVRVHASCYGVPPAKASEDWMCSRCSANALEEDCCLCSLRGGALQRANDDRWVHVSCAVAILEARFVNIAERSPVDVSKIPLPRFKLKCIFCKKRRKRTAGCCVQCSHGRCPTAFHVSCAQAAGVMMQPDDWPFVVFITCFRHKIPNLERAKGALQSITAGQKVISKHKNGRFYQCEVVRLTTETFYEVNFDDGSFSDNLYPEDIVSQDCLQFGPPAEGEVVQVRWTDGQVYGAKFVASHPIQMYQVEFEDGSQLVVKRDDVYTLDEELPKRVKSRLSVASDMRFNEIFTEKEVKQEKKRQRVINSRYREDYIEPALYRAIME
Experimental: as §1

T1 sequence (O15054 1026-1682 isoform O15054-1): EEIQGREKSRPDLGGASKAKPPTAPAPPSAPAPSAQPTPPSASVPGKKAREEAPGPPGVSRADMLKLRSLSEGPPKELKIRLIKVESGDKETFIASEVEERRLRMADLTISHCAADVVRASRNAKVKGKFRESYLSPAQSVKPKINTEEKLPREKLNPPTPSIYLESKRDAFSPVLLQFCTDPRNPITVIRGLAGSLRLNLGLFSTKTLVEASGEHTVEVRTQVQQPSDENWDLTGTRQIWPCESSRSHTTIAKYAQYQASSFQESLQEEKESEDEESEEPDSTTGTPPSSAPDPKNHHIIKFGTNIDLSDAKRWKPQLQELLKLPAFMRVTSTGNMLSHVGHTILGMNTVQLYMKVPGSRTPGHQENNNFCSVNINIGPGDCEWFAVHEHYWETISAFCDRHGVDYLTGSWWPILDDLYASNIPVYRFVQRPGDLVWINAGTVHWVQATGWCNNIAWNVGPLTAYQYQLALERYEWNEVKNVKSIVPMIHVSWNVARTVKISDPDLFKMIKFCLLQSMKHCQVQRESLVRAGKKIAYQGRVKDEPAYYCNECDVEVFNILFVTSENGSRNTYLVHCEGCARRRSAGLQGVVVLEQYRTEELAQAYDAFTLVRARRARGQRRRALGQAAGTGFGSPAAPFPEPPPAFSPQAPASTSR

SMILES | pIC50 [1] | pIC50 [2] | pIC50 [3]
CCN(CCN(C)C)C(=O)CNCc1cc(CN)ccn1 [Compound 4, 2-({[4-(aminomethyl)pyridin-2-yl]methyl}amino)-N-[2-(dimethylamino)ethyl]-N-ethylacetamide] | < 5.60 | > 6.60 | –
COc1ccccc1CN1CCC(NC(=O)CNCc2cc(CN)ccn2)CC1 [Compound 9, 2-({[4-(aminomethyl)pyridin-2-yl]methyl}amino)-N-{1-[(2-methoxyphenyl)methyl]-piperidin-4-yl}acetamide] | – | 5.60 to 6.60 | < 5.60
CN(C)C(=O)CNCc1cc(CNCC#N)ccn1 [Compound 13, 2-{[(4-{[(cyanomethyl)amino]-methyl}pyridin-2-yl)methyl]amino}-N,N-dimethylacetamide] | – | 5.60 to 6.60 | 5.60 to 6.60
CN(C)CCNCc1ccnc(CNCC(=O)N(C)C)c1 [Compound 15, 2-({[4-({[2-(dimethylamino)ethyl]-amino}methyl)pyridin-2-yl]methyl}amino)-N,N-dimethylacetamide] | – | – | < 5.60
CNC(C#N)c1ccnc(CNCCCN(C)C)c1 (stereo not shown) [Compound 24, 2-[2-({[3-(dimethylamino)propyl]-amino}methyl)pyridin-4-yl]-2-(methylamino)-acetonitrile] | < 5.60 | > 6.60 | –
CCN(CCN(C)C)C(=O)CNCc1cc(CNC(=O)C(F)(F)F)ccn1 [Compound 25, N-[(2-{[({[2-(dimethylamino)ethyl]-(ethyl)carbamoyl}-methyl)amino]methyl}-pyrtdin-4-yl)methyl]-2,2,2-trifluoroacetamide] | < 5.60 | > 6.60 | 5.60 to 6.60
CN(C)C(=O)CNCc1cc(/C=N/CCC2CCCCC2)ccn1 [Compound 36, 2-[({4-[[(2-cyclohexylethyl)imino]-methyl]pyridin-2-yl}methyl)amino]-N,N-dimethylacetamide] | – | > 6.60 | < 5.60
CN(CCCNCc1cc(/C=N/C2CC2)ccn1)Cc1ccccc1 [Compound 41, N-({2-[({3-[benzyl(methyl)amino]-propyl}amino)methyl]-pyridin-4-yl}methylidene)-cyclopropanamine] | – | – | < 5.60
C(=N/C1CC1)/c1ccnc(CNCCCN2CCCC2)c1 [Compound 42, N-{[2-({[3-(pyrrolidin-1-yl)propyl]amino}-methyl)pyridin-4-yl]methylidene}-cyclopropanamine] | < 5.60 | – | < 5.60
CN(C)CC1CCC(CNCc2cc(/C=N/C3CC3)ccn2)CC1 (stereo not shown) [Compound 46, N-[(2-{[({4-[(dimethylamino)-methyl]cyclohexyl}-methyl)amino]-methyl}pyridin-4-yl)methylidene]-cyclopropanamine] | – | > 6.60 | > 6.60
O=C(CNCc1cc(/C=N/C2CC2)ccn1)NC1CCN(Cc2ccccc2)C1 (stereo not shown) [Compound 53, N-(1-benzylpyrrolidin-3-yl)-2-[({4-[N-cyclopropyl-carboximidoyl]pyridin-2-yl}methyl)amino]-acetamide] | – | – | < 5.60
CCN(CC)CCCCNCc1cc(/C=N/CCOC)ccn1 [Compound 60, [4-(diethylamino)butyl]-({4-[[(2-methoxyethyl)imino]-methyl]pyridin-2-yl}methyl)amine] | – | – | 5.60 to 6.60
CCN(CCN(C)C)C(=O)CNCc1cc(C2OCC(Cc3ccccc3)CN2C(=O)C(F)(F)F)ccn1 (stereo not shown) [Compound 90, 2-[({4-[5-benzyl-3-(trifluoroacetyl)-1,3-oxazinan-2-yl]pyridin-2-yl}methyl)amino]-N-[2-(dimethylamino)-ethyl]-N-ethylacetamide] | < 5.60 | > 6.60 | > 6.60
CCN(CCN(C)C)C(=O)CNCc1cc(C2OCC3(CC3)CN2C(=O)C(F)(F)F)ccn1 (stereo not shown) [Compound 91, N-[2--(dimethylamino)-ethyl]-N-ethyl-2-[({4-[7-(trifluoroacetyl)-5-oxa-7-azaspiro[2.5]-octan-6-yl]pyridin-2-yl}methyl)amino]-acetamide] | < 5.60 | > 6.60 | > 6.60
CN(C)C/C=C/CNCc1cc(C=O)ccn1 [Compound 98, 2-({[(2E)-4-(dimethylamino)but-2-en-1-yl]amino}-methyl)pyridine-4-carbaldehyde] | – | – | > 6.60
CN(C)C/C=C\CNCc1cc(C=O)ccn1 [Compound 99, 2-({[(2Z)-4-(dimethylamino)-but-2-en-1-yl]amino}methyl)-pyridine-4-carbaldehyde] | – | 5.60 to 6.60 | –
CN1CCC(CNCc2cc(C=O)ccn2)CC1 [Compound 100, 2-({[(1-methyl-piperidin-4-yl)methyl]amino}-methyl)pyridine-4-carbaldehyde] | – | > 6.60 | –
CCN(CCN(C)C)C(=O)CNCc1cc(C=O)ccn1 [Compound 101] | < 5.60 | > 6.60 | 5.60 to 6.60
O=Cc1ccnc(CNCC(=O)N2CCC[C@@H]2CN2CCCC2)c1 [Compound 102, 2-[({2-oxo-2-[(2R)-2-(pyrrolidin-1-ylmethyl)pyrrolidin-1-yl]ethyl}amino)-methyl]pyridine-4-carbaldehyde] | – | – | 5.60 to 6.60
CCN(CC)CCCCNCc1cc(C=O)ccn1 [Compound 107, 2-({[4-(diethylamino)-butyl]amino}-methyl)pyridine-4-carbaldehyde] | < 5.60 | > 6.60 | –
O=Cc1ccnc(CNCCCN2CCCC2)c1 [Compound 111, 2-({[3-(pyrrolidin-1-yl)propyl]amino}-methyl)pyridine-4-carbaldehyde] | – | > 6.60 | < 5.60
CCN(CC)CCCCN(Cc1cc(C=O)ccn1)C(=O)C(F)(F)F [Compound 115, N-[4-(diethylamino)butyl]-2,2,2-trifluoro-N-[(4-formylpyridin-2-yl)methyl]acetamide] | – | > 6.60 | –
CCN(CC(C)(C)N(C)C)C(=O)CNCc1cc(C=O)ccn1 [Compound 118, N-[2-(dimethylamino)-2-methylpropyl]-N-ethyl-2-{[(4-formylpyridin-2-yl)methyl]amino}-acetamide] | – | > 6.60 | –
